# Results reported in paper PMC8484864 (Peptides, 2021).
# Entries after “also recorded” stand apart in the source; their conditions may differ.
# Key:
# apelin receptor = conditions: SAR study of short ELA fragments; cited from earlier work
# furin = assay: buffer-based ELA-32 digestion study; conditions: cited from earlier work
# [1] = human plasma, pooled from four healthy human donors; conditions: 37 °C, up to 240 min
# rat plasma in vitro = conditions: cited from earlier work
# [2] = human kidney homogenised in 50 mM HEPES solution, pH 7.4; conditions: 37 °C, up to 120 min
Sequence,binding to the apelin receptor (in words) (apelin receptor),fragment found (furin),cleaved bond [1],fragment found (rat plasma in vitro),fragment found [2]
"LHSRVPFP [ELA-8, ELA-32 fragment from loss of N-terminal amino acids]",completely lost its ability to bind the apelin receptor,,,,
QRPVNLTMRRKLRKHNCLQRRCMPLHSRVPFP,,ELA-11,"R-R and L-R, major, 60 min and R-K, first_seen, within 2 min and H-N, major, 60 min and Arg21-Cys22, major, 60 min and proline-phenylalanine",ELA-22; also recorded: ELA-32(1-9),"ELA-23, earliest time points; also recorded: ELA-17, 60 min"
